pEC50: −log10 of the molar value.
System: HCV 1b genotype
Assay: HCV Replicon assay (HCV-neo replicon cells, wild-type)
Assay type: cell-based
Settings: HCV 1b genotype replicon, class symbols
Outline: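 Inhibition was measured in HCV-neo (genotype 1b) replicon cells. Some assay versions used luciferase reporters.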

Row | Structure (SMILES) | pEC50 | pEC50 (Hepatitis C virus)
1 | COc1ccc(C)cc1C(=O)N1CCC[C@H]1c1nc2ccc(C#Cc3ccc4[nH]c([C@@H]5CCCN5C(=O)[C@H]5CCCO5)nc4c3)cc2[nH]1 [Example M54.14, 5-((2S-((2S)-1-(2-methoxy-5-methylbenzoyl)-2-pyrrolidinyl)-1H-benzimidazol-6-yl)ethynyl)-2-((2S)-1-((2R)-tetrahydro-2-furanylcarbonyl)-2-pyrrolidinyl)-1H-benzimidazole] | 6.00 to 7.00 | –
2 | O=C(CCOc1ccccc1)N1CCC[C@H]1c1nc2ccc(C#Cc3ccc4[nH]c([C@@H]5CCCN5C(=O)[C@H]5CCCO5)nc4c3)cc2[nH]1 [Example M54.15, 5-((2-((2S)-1-(3-phenoxypropanoyl)-2-pyrrolidinyl)-1H-benzimidazol-6-yl)ethynyl)-2-((2S)-1-((2R)-tetrahydro-2-furanylcarbonyl)-2-pyrrolidinyl)-1H-benzimidazole] | – | 7.00 to 8.34
3 | CC(=O)N1CCC[C@H]1c1nc2ccc(C#Cc3ccc4[nH]c([C@@H]5CCCN5C(=O)Cc5ccccc5)nc4c3)cc2[nH]1 [Example M54.16, 5-((2-((2S)-1-acetyl-2-pyrrolidinyl)-1H-benzimidazol-6-yl)ethynyl)-2-((2S)-1-(phenylacetyl)-2-pyrrolidinyl)-1H-benzimidazole] | – | 7.00 to 8.34
4 | COc1cccc(CC(=O)N2CCC[C@H]2c2nc3cc(C#Cc4ccc5nc([C@@H]6CCCN6C(C)=O)[nH]c5c4)ccc3[nH]2)c1 [Example M54.17, 5-((2-((2S)-1-acetyl-2-pyrrolidinyl)-1H-benzimidazol-6-yl)ethynyl)-2-((2S)-1-((3-methoxyphenyl)acetyl)-2-pyrrolidinyl)-1H-benzimidazole] | – | 7.00 to 8.34
5 | CC(=O)N1CCC[C@H]1c1nc2ccc(C#Cc3ccc4[nH]c([C@@H]5CCCN5C(=O)c5ccccc5)nc4c3)cc2[nH]1 [Example M54.18, 5-((2-((2S)-1-acetyl-2-pyrrolidinyl)-1H-benzimidazol-6-yl)ethynyl)-2-((2S)-1-benzoyl-2-pyrrolidinyl)-1H-benzimidazole] | – | 7.00 to 8.34
6 | CCc1ccccc1C(=O)N1CCC[C@H]1c1nc2cc(C#Cc3ccc4nc([C@@H]5CCCN5C(C)=O)[nH]c4c3)ccc2[nH]1 [Example M54.19, 5-((2-((2S)-1-acetyl-2-pyrrolidinyl)-1H-benzimidazol-6-yl)ethynyl)-2-((2S)-1-(2-ethylbenzoyl)-2-pyrrolidinyl)-1H-benzimidazole] | – | 6.00 to 7.00
7 | CC(=O)N1CCC[C@H]1c1nc2ccc(C#Cc3ccc4[nH]c([C@@H]5CCCN5C(=O)Cc5ccccn5)nc4c3)cc2[nH]1 [Example M54.20, 5-((2-((2S)-1-acetyl-2-pyrrolidinyl)-1H-benzimidazol-6-yl)ethynyl)-2-((2S)-1-(2-pyridinylacetyl)-2-pyrrolidinyl)-1H-benzimidazole] | 7.00 to 8.34 | –
8 | CC(=O)N1CCC[C@H]1c1nc2ccc(C#Cc3ccc4[nH]c([C@@H]5CCCN5C(=O)Cc5cccnc5)nc4c3)cc2[nH]1 [Example M54.21, 5-((2-((2S)-1-acetyl-2-pyrrolidinyl)-1H-benzimidazol-6-yl)ethynyl)-2-((2S)-1-(3-pyridinylacetyl)-2-pyrrolidinyl)-1H-benzimidazole] | – | 7.00 to 8.34
9 | CC(=O)N1CCC[C@H]1c1nc2ccc(C#Cc3ccc4[nH]c([C@@H]5CCCN5C(=O)c5cccnc5)nc4c3)cc2[nH]1 [Example M54.22, 5-((2-((2S)-1-acetyl-2-pyrrolidinyl)-1H-benzimidazol-6-yl)ethynyl)-2-((2S)-1-(3-pyridinylcarbonyl)-2-pyrrolidinyl)-1H-benzimidazole] | – | 6.00 to 7.00
10 | CC(=O)N1CCC[C@H]1c1nc2ccc(C#Cc3ccc4[nH]c([C@@H]5CCCN5C(=O)Cc5cccs5)nc4c3)cc2[nH]1 [Example M54.23, 5-((2-((2S)-1-acetyl-2-pyrrolidinyl)-1H-benzimidazol-6-yl)ethynyl)-2-((2S)-1-(2-thienylacetyl)-2-pyrrolidinyl)-1H-benzimidazole] | – | 7.00 to 8.34

— patent US7906655B2, “Hepatitis C virus inhibitors” (Bristol-Myers Squibb Company, priority 2008, dated 2011)
